# Experimental data from ChEMBL document CHEMBL6134771, “Ligand-centred phenotype-driven development of potent kinase inhibitors against oesophageal cancer” (RSC Med Chem, 2025).
# Activity calls are given as the source filed them. No cut-off for these calls is given here.
# Key:
# FLO-1 = test: Antiproliferative activity against human FLO-1 cells assessed as reduction in cell viability at 0.003 to 30 uM measured after 5 days by PrestoBlue reagent based fluorescence analysis; format: functional; details: dose 0.003-30 µM, time 5.0 day
# OE33 [1] = test: Antiproliferative activity against human OE33 cells assessed as reduction in cell viability at 0.003 to 30 uM measured after 5 days by PrestoBlue reagent based fluorescence analysis; format: functional; details: dose 0.003-30 µM, time 5.0 day
# cells [2] = details: Homo sapiens, FLO-1, 120 h
# Description: Antiproliferative activity against human FLO-1 cells assessed as reduction in cell viability measured after 5 days by PrestoBlue reagent based fluorescence analysis
# OE33 [3] = test: cells; details: Homo sapiens, OE33, 120 h
# Description: Antiproliferative activity against human OE33 cells assessed as reduction in cell viability measured after 5 days by PrestoBlue reagent based fluorescence analysis
# CP-A = test: Antiproliferative activity against human CP-A cells assessed as reduction in cell viability at 0.003 to 30 uM measured after 5 days by PrestoBlue reagent based fluorescence analysis; format: functional; details: dose 0.003-30 µM, time 5.0 day
# cells [4] = details: Homo sapiens, SKGT4, 120 h
# Description: Antiproliferative activity against human SKGT4 cells assessed as reduction in cell viability measured after 5 days by PrestoBlue reagent based fluorescence analysis
# EPC-2 = test: Antiproliferative activity against human EPC-2 cells assessed as reduction in cell viability at 0.003 to 30 uM measured after 5 days by PrestoBlue reagent based fluorescence analysis; format: functional; details: dose 0.003-30 µM, time 5.0 day
# cells [5] = details: Homo sapiens, MFD-1, 120 h
# Description: Antiproliferative activity against human MFD-1 cells assessed as reduction in cell viability measured after 5 days by PrestoBlue reagent based fluorescence analysis
# MFD-1 = test: Antiproliferative activity against human MFD-1 cells assessed as reduction in cell viability at 0.003 to 30 uM measured after 5 days by PrestoBlue reagent based fluorescence analysis; format: functional; details: dose 0.003-30 µM, time 5.0 day
# OACp4C = test: Antiproliferative activity against human OACp4C cells assessed as reduction in cell viability at 0.003 to 30 uM measured after 5 days by PrestoBlue reagent based fluorescence analysis; format: functional; details: dose 0.003-30 µM, time 5.0 day
# SKGT4 = test: Antiproliferative activity against human SKGT4 cells assessed as reduction in cell viability at 0.003 to 30 uM measured after 5 days by PrestoBlue reagent based fluorescence analysis; format: functional; details: dose 0.003-30 µM, time 5.0 day
# JH-EsoAd1 = test: Antiproliferative activity against human JH-EsoAd1 cells assessed as reduction in cell viability at 0.003 to 30 uM measured after 5 days by PrestoBlue reagent based fluorescence analysis; format: functional; details: dose 0.003-30 µM, time 5.0 day
# Aurora kinase A = biological target: T1, Aurora kinase A (Homo sapiens, UniProt O14965); test: Inhibition of recombinant AuroraA (unknown origin)
# T1 sequence (O14965 whole entry): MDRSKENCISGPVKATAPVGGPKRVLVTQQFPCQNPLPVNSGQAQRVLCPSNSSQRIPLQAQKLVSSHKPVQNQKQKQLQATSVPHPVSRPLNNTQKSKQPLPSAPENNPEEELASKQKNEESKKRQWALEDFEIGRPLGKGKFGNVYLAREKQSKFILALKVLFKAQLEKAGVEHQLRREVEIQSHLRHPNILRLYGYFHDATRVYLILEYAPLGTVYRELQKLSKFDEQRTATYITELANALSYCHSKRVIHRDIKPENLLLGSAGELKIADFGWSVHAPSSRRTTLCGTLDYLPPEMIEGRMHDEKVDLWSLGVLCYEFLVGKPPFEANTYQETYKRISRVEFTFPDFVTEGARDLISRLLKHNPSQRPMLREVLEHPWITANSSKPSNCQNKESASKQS
Compound,Activity (FLO-1),Activity (OE33 [1]),also measured
CCOC1CCN(C(=O)/C=C/c2nn(Cc3cccc(C)c3)c3nc(NC)ncc23)CC1,inactive,inactive,–
CNc1ncc2c(/C=C/C(=O)N3CCC(c4ccccc4)CC3)nn(CC3CCCC3)c2n1,Active,–,–
Nc1ncnc2c1c(/C=C/C(=O)N1CCCC1)nn2CC1CCCC1,–,–,EC50 (cells [2]): ~30 µM; EC50 (OE33 [3]): ~30 µM
CNc1ncc2c(/C=C/C(=O)N3CCC(OC)CC3)nn(Cc3cccc(C)c3)c2n1,Active,Active,EC50 (cells [2]): 2.5 µM; EC50 (OE33 [3]): 1.8 µM
CNc1ncc2c(/C=C/C(=O)N3CCC(O)CC3)nn(CC3CCCC3)c2n1,Active,–,–
CNc1ncc2c(/C=C/C(=O)N3CCC(OC)CC3)nn(CC3CCCC3)c2n1,Active,–,EC50 (cells [2]): < 9 µM; EC50 (OE33 [3]): < 9 µM
CNc1ncc2c(/C=C/C(=O)N3CCOCC3)nn(CC3CCCC3)c2n1,Active,–,–
CNc1ncc2c(/C=C/C(=O)N3CCC(OC)CC3)nn(C(C)C)c2n1,inactive,inactive,–
CNc1ncc2c(/C=C/C(=O)N3CCC(OC)CC3)nn(Cc3ccccc3OC)c2n1,inactive,inactive,–
Nc1ncnc2c1c(/C=C/C(=O)N1CCC(c3ccccc3)CC1)nn2CC1CCCC1,–,–,EC50 (cells [2]): ~30 µM; EC50 (OE33 [3]): ~30 µM
CNc1ncc2c(/C=C/C(=O)N3CCC(OC)CC3)nn(Cc3cccc(OC)c3)c2n1,Active,Active,–
CNc1ncc2c(/C=C/C(=O)N3CCC(CCO)CC3)nn(CC3CCCC3)c2n1,Active,–,–
CCOC(Cn1nc(/C=C/C(=O)N2CCC(OC)CC2)c2cnc(NC)nc21)OCC,inactive,inactive,–
CNc1ncc2c(/C=C/C(=O)N3CCC(OC)CC3)nn(CC3CCCCC3)c2n1,Active,Active,–
CN(C)C1CCCN(C(=O)/C=C/c2nn(CC3CCCC3)c3ncnc(N)c23)C1 (stereo not given),inactive,inactive,–
COC1CCN(C(=O)/C=C/c2nn(CC3CCCC3)c3ncnc(N)c23)CC1,inactive,inactive,–
CNc1ncc2c(/C=C/C(=O)N3CCCC(OC)C3)nn(Cc3cccc(C)c3)c2n1 (stereo not given),inactive,inactive,–
CNc1ncc2c(/C=C/C(=O)N3CCC(OC)CC3)nn(CC(OC)OC)c2n1,inactive,inactive,–
CNc1ncc2c(/C=C/C(=O)N3CCC(OC)CC3)nn(Cc3ccc(OC)cc3)c2n1,Active; Partial Restoration Of Antiproliferative Activity Observed,Active; Partial Restoration Of Antiproliferative Activity Observed,–
CNc1ncc2c(/C=C/C(=O)N3CCC(OC)CC3)nn(CC(C)(C)C)c2n1,inactive,inactive,–
CNc1ncc2c(/C=C/C(=O)N3CCC(OC)CC3)nn(CC3CCCO3)c2n1 (stereo not given),inactive,inactive,–
COC(=O)/C=C/c1nn(CC2CCCC2)c2ncnc(N)c12,inactive,inactive,–
CNc1ncc2c(/C=C/C(=O)N3CCC(COC)CC3)nn(Cc3cccc(C)c3)c2n1,inactive,inactive,–

Compound,Activity (FLO-1),Activity (OE33 [1]),also measured
CNc1ncc2c(/C=C/C(=O)N3CCC(N(C)C)CC3)nn(CC3CCCC3)c2n1,Active,–,–
Nc1ncnc2c1c(/C=C/C(=O)N1CCC(O)CC1)nn2CC1CCCC1,inactive,inactive,–
Nc1ncnc2c1c(/C=C/C(=O)O)nn2CC1CCCC1,inactive,inactive,–
CNc1ncc2c(/C=C/C(=O)O)nn(CC3CCCC3)c2n1,inactive,inactive,–
CC1CCN(C(=O)/C=C/c2nn(CC3CCCC3)c3ncnc(N)c23)CC1,inactive,inactive,–
CNc1ncc2c(/C=C/C(=O)N3CCCC3)nn(CC3CCCC3)c2n1,Active,–,–
CNc1ncc2c(/C=C/C(=O)N3CCC(OC)CC3)nn(Cc3ccc(C(F)(F)F)cc3)c2n1,Active; Partial Restoration Of Antiproliferative Activity Observed,Active; Partial Restoration Of Antiproliferative Activity Observed,–
CNc1ncc2c(/C=C/C(=O)N3CCC(C)CC3)nn(CC3CCCC3)c2n1,Active,–,–
CNc1ncc2c(/C=C/C(=O)N3CCC(OC)CC3)nn(Cc3ccccc3)c2n1,Active,Active,–
CNc1ncc2c(/C=C/C(=O)N3CCCC(N(C)C)C3)nn(CC3CCCC3)c2n1 (stereo not given),Active,–,–
CNc1ncc2c(/C=C/C(=O)N3CCC(OC)CC3)nn(CC3OCCO3)c2n1,inactive,inactive,–
CNc1ncc2c(/C=C/C(=O)N3CCC4(CC3)OCCO4)nn(Cc3cccc(C(F)(F)F)c3)c2n1,–,–,EC50 (cells [2]): 0.7 µM; Activity (CP-A): Active; EC50 (cells [4]): 2.9 µM; Activity (EPC-2): Active; EC50 (cells [5]): 0.92 µM; Activity (MFD-1): Active; Activity (OACp4C): Active; Activity (SKGT4): Active; Activity (JH-EsoAd1): Active; EC50 (OE33 [3]): 0.56 µM
CNc1ncc2c(/C=C/C(=O)N3CCC(OC)CC3)nn(Cc3cccc(C(F)(F)F)c3)c2n1,–,–,IC50 (Aurora kinase A): 1.45 µM
CNc1ncc2c(/C=C/C(=O)N3CCC(OC)CC3)nn(Cc3ccccc3C(F)(F)F)c2n1,inactive,inactive,–
CNc1ncc2c(/C=C/C(=O)N3CCC(OC)CC3)nn(Cc3ccc(C)cc3)c2n1,Active; Partial Restoration Of Antiproliferative Activity Observed,Active; Partial Restoration Of Antiproliferative Activity Observed,–
CN(C)C1CCN(C(=O)/C=C/c2nn(CC3CCCC3)c3ncnc(N)c23)CC1,inactive,inactive,–
CNc1ncc2c(/C=C/C(=O)N3CCCCC3)nn(CC3CCCC3)c2n1,Active,–,–
Nc1ncnc2c1c(/C=C/C(=O)N1CCOCC1)nn2CC1CCCC1,inactive,inactive,–
CNc1ncc2c(/C=C/C(=O)N3CCC(OC)CC3)nn(Cc3ccccc3C)c2n1,inactive,inactive,–
Nc1ncnc2c1c(/C=C/C(=O)N1CCCCC1)nn2CC1CCCC1,inactive,inactive,–
CNc1ncc2c(/C=C/C(=O)N3CCC(OC)CC3)nn(CCC(C)C)c2n1,inactive,inactive,–
CNc1ncc2c(/C=C/C(=O)N3CCC4(CC3)OCCO4)nn(Cc3cccc(C)c3)c2n1,Active,Active,EC50 (cells [2]): 1.24 µM; EC50 (OE33 [3]): 0.83 µM
Nc1ncnc2c1c(/C=C/C(=O)N1CCC(CCO)CC1)nn2CC1CCCC1,inactive,inactive,–
